Experimental data from patent US8779157B2, “MGLUR4 allosteric potentiators, compositions, and methods of treating neurological dysfunction” (Vanderbilt University, priority 2009, dated 2014).

The compounds below were run against mGluR4 (UniProt Q14833) (assay: mGluR4 potentiation assay (fluorescence, Ca2+ or thallium/GIRK readout; EC20 agonist)). Conditions: half maximal effective concentration for mGluR4 potentiation; species of receptor not given.
Format: cell-based, human / rat
Protocol: The disclosed compounds and compositions can be evaluated for their ability to act as a potentiator of metabotropic glutamate receptor activity, in particular mGluR4 activity, by any suitable known methodology known in the art. For example, Chinese Hamster Ovary (CHO) cells transfected with human mGluR4 or HEK cells co-transfected with rat mGluR4 and the G-protein regulated Inwardly Rectifying Potassium channel (GIRK) were plated in clear bottom assay plates for assay in a Hamamatsu FDSS Fluorometric Plate Reader. The cells were loaded with either a Ca2+-sensitive fluorescent dye or the thallium responsive dye and the plates were washed and placed into a suitable kinetic plate reader. For human mGluR4 assays, a fluorescence baseline was established for 3-5 seconds, the disclosed compounds were then added to the cells, and the response in cells was measured. Approximately two and a half minutes later, a concentration of mGluR4 orthosteric agonist (e.g. glutamate or L-AP4) eliciting approximately 20% (EC20) of the maximal agonist response was added to the cells, and the response was measured. Two minutes later, a concentration of mGluR4 agonist (e.g. glutamate or L-AP4) eliciting 80% (EC80) of the maximal agonist response was added to the cells, and the response was measured. For rat mGluR4/GIRK experiments, a baseline was established for approximately five seconds, disclosed compounds were added, and either an EC20 or EC80 concentration of agonist was added approximately two and one half minutes later. Potentiation of the agonist response of mGluR4 by the disclosed compounds was observed as an increase in response to the EC20 concentration of agonist in the presence of compound compared to the response to agonist in the absence of compound. Similarly, antagonism of the agonist response of mGluR4 by the disclosed compounds was observed as a decrease in response to the EC80 concentration of agonist in the presence of compound compared to the response to agonist in the absence of compound.
The above described assay operated in two modes. In the first mode, a range of concentrations of the disclosed compounds are added to cells, followed by a single fixed concentration of agonist. If the compound acts as a potentiatior, an EC50 value for potentiation and a maximum extent of potentiation by the compound at this concentration of agonist is determined by non-linear curve fitting. If the compound acts as a noncompetitive antagonist, an IC50 value is determined by non-linear curve fitting. In the second mode, several fixed concentrations of the disclosed compounds are added to various wells on a plate, followed by a range in concentrations of agonist for each concentration of disclosed compound. The EC50 values for the agonist at each concentration of compound are determined by non-linear curve fitting. A decrease in the EC50 value of the agonist with increasing concentrations of the sample compound (a leftward shift of the agonist concentration-response curve) is an indication of the degree of mGluR4 potentiation at a given concentration of the sample compound. A decrease in the maximal response of the agonist with increasing concentrations of the sample compounds, with or without a rightward shift in agonist potency, is an indication of the degree of noncompetitive antagonism at mGluR4. The second mode also indicates whether the sample compounds also affect the maximum response to mGluR4 to agonists.

Row | SMILES | EC50 [nM]
1 | O=C(Nc1ccc(N2C(=O)NC3(CCC3)C2=O)c(Cl)c1)c1ccccn1 [Example 1.3.14, N-(3-chloro-4-(6,8-dioxo-5,7-diazaspiro[3.4]octan-7-yl)phenyl)picolinamide] | 1280
2 | O=C(Nc1ccc(N2C(=O)NC3(CCCCC3)C2=O)c(C(F)(F)F)c1)c1ccccn1 [Example 1.3.50, N-(4-(2,4-dioxo-1,3-diazaspiro[4.5]decan-3-yl)-3-(trifluoromethyl)phenyl)picolinamide] | 454
3 | CC12CCCCN1C(=S)N(c1ccc(NC(=O)c3cccc(F)n3)cc1Cl)C2=O (stereo not drawn) [Example 1.3.98, N-(3-chloro-4-(8a-methyl-1-oxo-3-thioxohexahydroimidazo[1,5-a]pyridin-2(3H)-yl)phenyl)-6-fluoropicolinamide] | 470
4 | O=C(Nc1ccc(N2C(=O)NC3(CCCCCC3)C2=O)c(Cl)c1)c1ccccn1 [Example 1.3.15, N-(3-chloro-4-(2,4-dioxo-1,3-diazaspiro[4.6]undecan-3-yl)phenyl)picolinamide] | 222
5 | O=C(Nc1ccc(N2C(=O)C3CCCCN3C2=S)c(Cl)c1)c1ccccn1 (stereo not drawn) [Example 1.3.10] | 367
6 | O=C(Nc1ccc(N2C(=O)C3CCCCN3C2=S)c(Cl)c1)c1ncccc1F (stereo not drawn) [Example 1.3.84, N-(3-chloro-4-(1-oxo-3-thioxohexahydroimidazo[1,5-a]pyridin-2(3H)-yl)phenyl)-3-fluoropicolinamide] | 993
7 | O=C(Nc1ccc(N2C(=O)C3COCCN3C2=S)c(Cl)c1)c1cccs1 (stereo not drawn) [Example 1.3.33, N-(3-Chloro-4-(1-oxo-3-thioxodihydro-1H-imidazo[5,1-c][1,4]oxazin-2(3H,8H,8aH)-yl)phenyl)thiophene-2-carboxamide] | 8460
8 | O=C(Nc1ccc(N2C(=O)C3CCCCN3C2=S)c(Cl)c1)c1cscn1 (stereo not drawn) [Example 1.3.80, N-(3-chloro-4-(1-oxo-3-thioxohexahydroimidazo[1,5-a]pyridin-2(3H)-yl)phenyl)thiazole-4-carboxamide] | 1970
9 | O=C(Nc1ccc(N2C(=O)C3CCCCN3C2=S)c(Cl)c1)c1cnccn1 (stereo not drawn) [Example 1.3.76, N-(3-chloro-4-(1-oxo-3-thioxohexahydroimidazo[1,5-a]pyridin-2(3H)-yl)phenyl)pyrazine-2-carboxamide] | 5040
10 | O=C(Nc1ccc(N2C(=O)C3CSCCN3C2=O)c(Cl)c1)c1cccc(F)n1 (stereo not drawn) [Example 1.3.42, N-(3-chloro-4-(1,3-dioxodihydro-1H-imidazo[5,1-c][1,4]thiazin-2(3H,8H,8aH)-yl)phenyl)-6-fluoropicolinamide] | 1170
11 | CC(=O)N1CCN2C(=O)N(c3ccc(NC(=O)c4ccccn4)cc3Cl)C(=O)C2C1 (stereo not drawn) [Example 1.3.72, N-(4-(7-acetyl-1,3-dioxohexahydroimidazo[1,5-a]pyrazin-2(3H)-yl)-3-chlorophenyl)picolinamide] | 4510
12 | CCN1C(=O)N(c2ccc(NC(=O)c3ccccn3)cc2Cl)C(=O)[C@]1(C)Cc1ccccc1 [Example 1.3.65, (S)-N-(4-(4-benzyl-3-ethyl-4-methyl-2,5-dioxoimidazolidin-1-yl)-3-chlorophenyl)picolinamide] | 236
13 | CC12CCCCN1C(=O)N(c1ccc(NC(=O)c3ncc(F)cc3F)cc1Cl)C2=O (stereo not drawn) [Example 1.3.88, N-(3-chloro-4-(8a-methyl-1,3-dioxohexahydroimidazo[1,5-a]pyridin-2(3H)-yl)phenyl)-3,5-difluoropicolinamide] | 1100
14 | O=C(Nc1ccc(N2C(=O)C3CN(C4CCCCC4)CCN3C2=O)c(Cl)c1)c1ccccn1 (stereo not drawn) [Example 1.3.71, N-(3-chloro-4-(7-cyclohexyl-1,3-dioxohexahydroimidazo[1,5-a]pyrazin-2(3H)-yl)phenyl)picolinamide] | 2230
15 | O=C(Nc1ccc(N2C(=O)C3CSCCN3C2=O)c(Cl)c1)c1ccccn1 (stereo not drawn) [Example 1.3.40, N-(3-chloro-4-(1,3-dioxodihydro-1H-imidazo[5,1-c][1,4]thiazin-2(3H,8H,8aH)-yl)phenyl)picolinamide] | 403
16 | CN1C(=O)N(c2ccc(NC(=O)c3ccccn3)cc2Cl)C(=O)C12CCCCC2 [Example 1.3.52, N-(3-chloro-4-(1-methyl-2,4-dioxo-1,3-diazaspiro[4.5]decan-3-yl)phenyl)picolinamide] | 178
17 | O=C(Nc1ccc(N2C(=O)C3CSCCN3C2=O)c(Cl)c1)c1cscn1 (stereo not drawn) [Example 1.3.43, N-(3-chloro-4-(1,3-dioxodihydro-1H-imidazo[5,1-c][1,4]thiazin-2(3H,8H,8aH)-yl)phenyl)thiazole-4-carboxamide] | 3760
18 | O=C(Nc1ccc(N2C(=O)C3CCCCN3C2=S)c(Cl)c1)c1nccs1 (stereo not drawn) [Example 1.3.79, N-(3-chloro-4-(1-oxo-3-thioxohexahydroimidazo[1,5-a]pyridin-2(3H)-yl)phenyl)thiazole-2-carboxamide] | 1340

Results, then the compound that gave them:

Row | EC50 [nM] | SMILES
19 | 2110 | O=C(Nc1ccc(N2C(=O)C3CCCN3C2=O)c(Cl)c1)c1ccccn1 (stereo not drawn) [Example 1.3.9, N-(3-chloro-4-(1,3-dioxo-1H-pyrrolo[1,2-c]imidazol-2(3H,5H,6H,7H,7aH)-yl)phenyl)picolinamide]
20 | 828 | CC12CCCCN1C(=S)N(c1ccc(NC(=O)c3ccc(Cl)o3)cc1Cl)C2=O (stereo not drawn) [Example 1.3.97, 5-chloro-N-(3-chloro-4-(8a-methyl-1-oxo-3-thioxohexahydroimidazo[1,5-a]pyridin-2(3H)-yl)phenyl)furan-2-carboxamide]
21 | 1470 | O=C(Nc1ccc(N2C(=O)C3COCCN3C2=S)c(Cl)c1)c1ccccn1 (stereo not drawn) [Example 1.3.30, N-(3-Chloro-4-(1-oxo-3-thioxodihydro-1H-imidazo[5,1-c][1,4]oxazin-2(3H, 8H,8aH)-yl)phenyl)picolinamide]
22 | 6320 | O=C(Nc1ccc(N2C(=O)C3COCCN3C2=O)c(Cl)c1)c1nccs1 (stereo not drawn) [Example 1.3.25, N-(3-Chloro-4-(1,3-dioxodihydro-1H-imidazo[5,1-c][1,4]oxazin-2(3H,8H,8aH)-yl)phenyl)thiazole-2-carboxamide]
23 | 933 | O=C(Nc1ccc(N2C(=O)C3COCCN3C2=S)c(Cl)c1)c1cccc(F)n1 (stereo not drawn) [Example 1.3.38, N-(3-Chloro-4-(1-oxo-3-thioxodihydro-1H-imidazo[5,1-c][1,4]oxazin-2(3H, 8H,8aH)-yl)phenyl)-6-fluoropicolinamide]
24 | 8770 | O=C(Nc1ccc(N2C(=O)C3COCCN3C2=O)c(Cl)c1)c1ccc(Cl)o1 (stereo not drawn) [Example 1.3.28, 5-Chloro-N-(3-chloro-4-(1,3-dioxodihydro-1H-imidazo[5,1-c][1,4]oxazin-2(3H,8H,8aH)-yl)phenyl)furan-2-carboxamide]
25 | 2930 | O=C(Nc1ccc(N2C(=O)C3COCCN3C2=O)c(Cl)c1)c1ncc(F)cc1F (stereo not drawn) [Example 1.3.27, N-(3-Chloro-4-(1,3-dioxodihydro-1H-imidazo[5,1-c][1,4]oxazin-2(3H,8H,8aH)-yl)phenyl)-3,5-difluoropicolinamide]
26 | 1900 | CC12CCCCN1C(=S)N(c1ccc(NC(=O)c3cccnn3)cc1Cl)C2=O (stereo not drawn) [Example 1.3.100, N-(3-chloro-4-(8a-methyl-1-oxo-3-thioxohexahydroimidazo[1,5-a]pyridin-2(3H)-yl)phenyl)pyridazine-3-carboxamide]
27 | 1680 | O=C(Nc1ccc(N2C(=O)C3COCCN3C2=S)c(Cl)c1)c1ncc(F)cc1F (stereo not drawn) [Example 1.3.36, N-(3-Chloro-4-(1-oxo-3-thioxodihydro-1H-imidazo[5,1-c][1,4]oxazin-2(3H, 8H,8aH)-yl)phenyl)-3,5-difluoropicolinamide]
28 | 754 | CC(C)(C)OC(=O)N1CCN2C(=O)N(c3ccc(NC(=O)c4ccccn4)cc3Cl)C(=O)C2C1 (stereo not drawn) [Example 1.3.44, tert-butyl-2-(2-chloro-4-(picolinamide)phenyl)-1,3-dioxohexahydroimidazo[1,5-a]pyrazine-7(1H)-carboxylate]
29 | 1630 | CC12CCCCN1C(=O)N(c1ccc(NC(=O)c3nccs3)cc1Cl)C2=O (stereo not drawn) [Example 1.3.86, N-(3-chloro-4-(8a-methyl-1,3-dioxohexahydroimidazo[1,5-a]pyridin-2(3H)-yl)phenyl)thiazole-2-carboxamide]
30 | 4120 | O=C(Nc1ccc(N2C(=O)NC3(CCCCC3)C2=O)c(C(F)(F)F)c1)c1ccco1 [Example 1.3.55, N-(4-(2,4-dioxo-1,3-diazaspiro[4.5]decan-3-yl)-3-(trifluoromethyl)phenyl)furan-2-carboxamide]
